For test [1], the system named is K562 erythroleukemia cells transduced with shRPS19. The test is described as follows: Autophagy induction (p62, LC3-I, LC3-II protein levels) in K562 cells transduced with shRPS19. Type of test: cell-based, human. The settings on record: 5-FU 100 nM. As to the method: (FIG. 13A) Induction of autophagy by SMER28 (40 μM) monitored by protein levels of p62, LC3-I, and LC3-II after 24 hours. Cells were also treated with 5-FU (100 nM) to induce autophagy, or inhibitor of transcription actinomycin D (ActD; 100 nM). (FIG. 13B) Induction of autophagy by SMER28 (40 μM) monitored by protein levels of p62, LC3-I, and LC3-II after 24 hours treatment with or without lysosomal blockade with bafilomycin A (200 nM for 4 hours). Untreated samples are shown at higher exposure, to capture dynamic changes in the LC3-II levels. Rapamycin (200 nM) is a positive control. LC3-II levels relative to GAPDH are quantitated on the right. (FIG. 13C) Erythroid differentiation of CD34-5F cells transduced with shRNAs for luciferase (LUC) or ATG5±SMER28. Representative flow plots and quantitation showing the number of erythroid cells induced by SMER28 (10 μM) normalized to DMSO. 2 control luciferase shRNAs and 2 ATG5 shRNAs are included (knockdown efficiency in hematopoietic cells of 58% and 50%, respectively), each with 2 independent lines; p=0.005, 3 independent experiments. (FIG. 13D) Atg5 deficiency causes anemia in zebrafish. Wild-type zebrafish embryos were treated with 1.6 ng atg5 or missense morpholino, and hemoglobin staining was visualized with benzidine staining at 40 hpf with SMER28 (1 μM). Representative images (left), and quantitation (right) with embryos grouped by high, medium, and low levels of benzidine staining.
SMER28 was identified as an mTOR-independent inducer of autophagy, by synergizing with rapamycin to promote clearance of protein aggregates in models of neurodegenerative disease (Sarkar et al., 2007; Tian et al., 2011). Autophagy is a pro-survival pathway induced by a variety of stresses, such as nutrient limitation or protein aggregation. Autophagy is required for clearance of mitochondria during terminal erythroid maturation (Mortensen and Simon, 2010), but has not been linked with earlier stages of erythropoiesis. To determine if SMER28 modulates autophagy in erythroid cells, we interrogated the levels of p62 and LC3 in K562 erythroleukemia cells transduced with shRPS19. SMER28 reduced p62 and increased the levels of […] LC3-II isoform associated with autophagosomes (FIG. 13A). […] To measure autophagic flux, we monitored LC3-II levels after blocking lysosomal fusion with bafilomycin A. SMER28 increased LC3-II levels following lysosomal blockade, similarly to the mTOR inhibitor rapamycin (FIG. 13B).
Drug treatments. SMER28 was purchased from Tocris and diluted in 10 mM aliquots in DMSO. The final concentration for CD34-5F and CB CD34^+erythroid treatments was 0.2-10 μM as indicated in the text. The final concentration for K562 cell treatments was 20-40 μM. […]

The test system of a further test is CB CD34+ cells. The class given is in vivo, NSG mice. The settings on record: 1 mg/kg Dex (sodium-phosphate) for 4 weeks; p=0.04. As to the method:
(FIG. 10A) SMER28 rescues RBC output in rps29^+/− zebrafish embryos. The level of hemoglobin in the yolk sac was visualized 40hpf with benzidine staining. Images are representative of the proportion of embryos indicated (of total counted). (FIG. 10B) Quantitation of SMER28 rescue for a range of 0.1-1 μM, with embryos grouped by high, medium, and low levels of hemoglobin staining. (FIG. 10C) Peripheral blood (PB) RBC counts and hematocrit in mice with irradiation-induced anemia. Mice were treated with the PEG400-based vehicle containing DMSO (VEH) (n=11), 1 mg/kg Dex (sodium-phosphate) (n=13), or 10 mg/kg SMER28 (n=9) for 3 weeks, bled, and assessed. Data are combined from 3 independent experiments. (FIG. 10D) Erythroid cells as proportion of the human graft in mice transplanted with DBA CD34-5F progenitors, and treated as in (FIG. 1c). (FIG. 10E) Levels of human engraftment in NSG mouse bone marrow (BM) transplanted with CB CD34^+ cells. Mice were treated with DMSO plus vehicle (VEH) (n=10), 1 mg/kg Dex (sodium-phosphate) (n=6), or 2 mg/kg SMER28 (n=11) for 4 weeks. (FIG. 10F) The proportion of erythroid, myeloid, and lymphoid (B cells) lineages within the human graft in vehicle- and SMER28-treated mice transplanted with CB CD34^+ cells. Only the effect on the erythroid lineage was significant. Data in FIGS. 10E-10G are pooled from 2 independent experiments. For all panels, *p<0.05, * *p<0.01.
Drug treatments. SMER28 was purchased from Tocris and diluted in 10 mM aliquots in DMSO. The final concentration for CD34-5F and CB CD34^+erythroid treatments was 0.2-10 μM as indicated in the text. The final concentration for K562 cell treatments was 20-40 μM. Ferric citrate (1-50 μM) and deferoxamine (100-200 μM) (Sigma) were dissolved in PBS and added on days 0-4 of “expansion” culture, and washed off prior to erythroid stage I (days 4-9) differentiation. For in vivo experiments, SMER28 aliquots were diluted in vehicle solution: 30% PEG-400, 5% propylene glycol, and 0.5% Tween-80. Dosing for human xenograft experiments was 2 mg/kg; for mouse models 10-20 mg/kg. Dexamethasone was purchased as Dex-sodium phosphate (DexSP) water-soluble formulation (Santa Cruz), and diluted in PBS vehicle (1 mg/kg). NSG mice were sub-lethally irradiated at 275 rads, and administered 100 μl of drug or vehicle by oral gavage daily.

Test [2] deals with CD71+ cells in a erythroid cell population. The test is described as follows: Percentage of CD71+ cells in an erythroid cell population in vitro. The class given is cell-based. The settings on record: between 5-20 μM in vitro. From the text:
Accordingly, in some embodiments, an autophagy activator as disclosed herein can be administered to a subject according to the methods as disclosed herein in an effective dose to increase the levels of CD71+ cells in an erythroid cell population obtained from the subject by at least about 1%, at least about 2%, at least about 3%, at least about 5%, at least about 10%, at least about 15%, least about 20%, at least about 30%, at least about 40%, at least about 50%, or more than 50%, as compared to in the absence of an autophagy activator.

These results are taken from patent US11980620B2, “Compounds and methods for treatment of Diamond Blackfan anemia” (THE CHILDREN'S MEDICAL CENTER CORPORATION, priority 2017, dated 2024).

Turning to `O=c1[nH]cc(F)c(=O)[nH]1` [5-fluorouracil, reference compound], the “conversion of cytosolic LC3-I into LC3-II” value in test [1] was “induced”. As for `C[C@@H]1C[C@H]2[C@@H]3CCC4=CC(=O)C=C[C@]4(C)[C@@]3(F)[C@@H](O)C[C@]2(C)[C@@]1(O)C(=O)CO` [Dex, Dexamethasone, reference compound], in the test with CB CD34+ cells, the “RBC output as proportion of human graft” value is recorded as 10.4%. Turning to `CN1CCN(CCCN2c3ccccc3Sc3ccc(C(F)(F)F)cc32)CC1` [TFP], the “percentage of CD71+ cells” value in test [2] is “restored”.
